Experimental data from patent US20120214862A1, “MODULATION OF FACTOR 7 EXPRESSION” (ISIS Pharmaceuticals, Inc., priority 2009, published 2012).
In the oligonucleotide strings, read from the 5' end, every base follows the letter of its sugar. An asterisk marks phosphorothioate; unmarked linkages are phosphodiester. Other units and linkages are bracketed, terminal groups are in braces. A string of capitals states the bases alone. e = 2'-O-(2-methoxyethyl) (MOE); [5mC] = 5-methylcytosine; d = 2'-deoxy (DNA)

System: human Factor 7 mRNA
Experiment: Inhibition of human Factor 7 mRNA by 2-10-2 MOE shortmers in HepB3 cells, electroporation, 1,000 nM
Type: cell-based
Conditions: electroporation, 1,000 nM oligonucleotide, approximately 24 hours, relative to untreated control cells
Procedure, shortened: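 14-mer 2-10-2 2′-MOE gapmers, full phosphorothioate, 5-methylcytidines, electroporated at 1,000 nM into HepB3 cells (20,000/well). After ~24 h, mRNA quantified by real-time RT-PCR, normalized to RIBOGREEN total RNA; percent inhibition relative to untreated cells.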

Row | Substance | % inhibition of human Factor 7 mRNA [%]
1 | 435793 (antisense eT*eG*d[5mC]*dA*dG*dT*dA*dG*d[5mC]*dA*dG*dA*eT*eG) [compound 435793] | 27
2 | 435794 (antisense eG*eA*dG*dG*dT*dA*d[5mC]*dA*d[5mC]*dA*dG*dG*e[5mC]*eT) [compound 435794] | 26
3 | 435795 (antisense eA*e[5mC]*dA*d[5mC]*d[5mC]*d[5mC]*dG*dA*dG*dG*dT*dT*e[5mC]*eA) [compound 435795] | 66
4 | 435796 (antisense eT*eG*dA*d[5mC]*d[5mC]*dA*d[5mC]*dA*d[5mC]*dA*dT*dT*eT*e[5mC]) [compound 435796] | 30
5 | 435797 (antisense eA*eA*dT*d[5mC]*dT*dT*dG*dG*d[5mC]*d[5mC]*d[5mC]*d[5mC]*eT*e[5mC]) [compound 435797] | 16
6 | 435798 (antisense eA*eG*d[5mC]*d[5mC]*dA*dG*dA*d[5mC]*dT*dT*dT*d[5mC]*e[5mC]*eT) [compound 435798] | 54
7 | 435799 (antisense e[5mC]*eT*dG*dG*dT*d[5mC]*d[5mC]*d[5mC]*d[5mC]*dA*dT*d[5mC]*eT*eG) [compound 435799] | 33
8 | 435800 (antisense eG*eG*dA*d[5mC]*d[5mC]*d[5mC]*dA*dA*dA*dG*dT*dG*eG*eG) [compound 435800] | 0
9 | 435801 (antisense e[5mC]*eG*dG*dT*dT*dG*dG*d[5mC]*d[5mC]*dA*dG*dG*e[5mC]*e[5mC]) [compound 435801] | 38
10 | 435802 (antisense eG*eT*d[5mC]*dA*d[5mC]*d[5mC]*dT*dA*dG*dA*d[5mC]*d[5mC]*eA*eA) [compound 435802] | 61
11 | 435803 (antisense eG*eA*dG*dA*dA*dT*dT*dG*d[5mC]*d[5mC]*d[5mC]*dA*eG*eG) [compound 435803] | 0
12 | 435804 (antisense e[5mC]*eA*dG*dG*dG*dA*d[5mC]*dT*d[5mC]*dT*d[5mC]*dA*eG*e[5mC]) [compound 435804] | 26
13 | 435805 (antisense eT*eG*dA*dA*dT*dT*dA*d[5mC]*dT*dG*dA*dA*e[5mC]*e[5mC]) [compound 435805] | 0
14 | 435806 (antisense eT*eG*dA*d[5mC]*d[5mC]*d[5mC]*d[5mC]*dA*d[5mC]*dA*dG*dG*eG*eA) [compound 435806] | 7
15 | 435807 (antisense e[5mC]*eA*dG*dT*dA*d[5mC]*dT*dT*d[5mC]*d[5mC]*d[5mC]*dA*e[5mC]*eG) [compound 435807] | 35
16 | 435808 (antisense e[5mC]*eT*d[5mC]*dT*dG*dG*dA*d[5mC]*dA*d[5mC]*d[5mC]*dG*eG*eG) [compound 435808] | 66
17 | 435809 (antisense e[5mC]*eT*dG*dA*d[5mC]*dA*dA*dT*dG*dT*dG*dA*eT*eG) [compound 435809] | 5
18 | 435810 (antisense e[5mC]*eT*dG*dA*dG*dG*dG*dA*dA*dT*dG*dT*eT*eG) [compound 435810] | 1
19 | 435811 (antisense eG*eT*dG*dG*dT*d[5mC]*dA*dA*dG*dG*dA*dT*eG*eA) [compound 435811] | 27

Row | Substance | % inhibition of human Factor 7 mRNA [%]
20 | 435812 (antisense eG*e[5mC]*dT*dG*dA*dG*d[5mC]*dA*dG*dA*dG*dA*eT*e[5mC]) [compound 435812] | 35
21 | 435813 (antisense eG*eG*dA*dT*dG*d[5mC]*dA*d[5mC]*dA*d[5mC]*d[5mC]*dA*eG*eG) [compound 435813] | 55
22 | 435814 (antisense eT*eG*dA*d[5mC]*dG*dA*dG*dA*dG*dG*dA*d[5mC]*e[5mC]*eA) [compound 435814] | 31
23 | 435815 (antisense e[5mC]*eT*d[5mC]*dT*dT*d[5mC]*d[5mC]*dG*dA*dG*d[5mC]*dA*eG*e[5mC]) [compound 435815] | 59
24 | 435816 (antisense eT*e[5mC]*d[5mC]*dA*dA*dA*dG*dG*dA*d[5mC]*dA*dA*eG*eG) [compound 435816] | 4
25 | 435817 (antisense e[5mC]*eT*dG*dA*dG*d[5mC]*dT*dT*dG*dG*d[5mC]*dA*e[5mC]*e[5mC]) [compound 435817] | 39
26 | 435818 (antisense eG*eT*d[5mC]*dA*dT*d[5mC]*d[5mC]*dT*dT*dG*dT*d[5mC]*eT*eG) [compound 435818] | 43
27 | 435819 (antisense eT*eT*dT*dG*dT*d[5mC]*d[5mC]*dA*dG*dT*dA*dA*eG*eA) [compound 435819] | 1
28 | 435820 (antisense e[5mC]*eA*dT*d[5mC]*d[5mC]*dT*dA*dG*dT*d[5mC]*dA*d[5mC]*eT*eG) [compound 435820] | 19
29 | 435821 (antisense eA*eG*dT*d[5mC]*dA*dG*dT*dA*d[5mC]*dA*dG*dA*e[5mC]*eA) [compound 435821] | 0
30 | 435822 (antisense e[5mC]*e[5mC]*dA*dG*dG*dA*dG*d[5mC]*d[5mC]*dT*dT*dT*eA*e[5mC]) [compound 435822] | 37
31 | 435823 (antisense eT*eG*dA*dG*dT*d[5mC]*d[5mC]*d[5mC]*dA*dG*dG*d[5mC]*eT*eG) [compound 435823] | 41
32 | 435824 (antisense e[5mC]*e[5mC]*dT*dA*dA*dA*dG*dA*dT*dG*dA*dA*eT*e[5mC]) [compound 435824] | 21
33 | 435825 (antisense e[5mC]*eT*dG*dG*dT*dT*dT*dT*dG*dG*dA*dG*eG*eA) [compound 435825] | 0
34 | 435826 (antisense eA*eA*dG*dT*dG*dG*d[5mC]*dT*dG*dG*d[5mC]*dT*eG*eA) [compound 435826] | 27
35 | 435827 (antisense eT*e[5mC]*dA*dG*dA*dA*dA*dG*dA*dT*dG*d[5mC]*eA*eG) [compound 435827] | 5
36 | 435828 (antisense eG*eA*d[5mC]*d[5mC]*dT*dG*d[5mC]*d[5mC]*d[5mC]*dA*dT*dT*eT*eT) [compound 435828] | 0
37 | 435829 (antisense eG*eG*dG*dT*dA*dG*dA*d[5mC]*d[5mC]*d[5mC]*dT*d[5mC]*eA*eG) [compound 435829] | 18
38 | 435830 (antisense eT*eG*dA*dT*dT*dT*dT*dG*d[5mC]*dA*dA*dA*eG*eA) [compound 435830] | 0

Row | Substance | % inhibition of human Factor 7 mRNA [%]
39 | 435831 (antisense eG*eA*dT*d[5mC]*dT*dT*d[5mC]*dA*d[5mC]*dA*dT*dA*eG*e[5mC]) [compound 435831] | 51
40 | 435832 (antisense eT*eG*d[5mC]*dT*d[5mC]*dA*dG*dA*d[5mC]*d[5mC]*dT*dG*eG*e[5mC]) [compound 435832] | 70
41 | 435833 (antisense eA*eG*dA*d[5mC]*dA*d[5mC]*dT*dT*dG*dA*dG*dA*eG*e[5mC]) [compound 435833] | 24
42 | 435834 (antisense eT*eG*dA*d[5mC]*dA*dG*d[5mC]*dA*d[5mC]*dG*dA*dA*eG*e[5mC]) [compound 435834] | 20
43 | 435835 (antisense eT*eT*dA*dT*dT*dT*dG*dG*dG*d[5mC]*dA*dT*eG*eG) [compound 435835] | 7
44 | 435836 (antisense e[5mC]*eT*dA*dG*dG*dT*d[5mC]*dT*dG*d[5mC]*dA*dG*eG*eG) [compound 435836] | 41
45 | 435837 (antisense e[5mC]*eT*d[5mC]*dG*d[5mC]*d[5mC]*dT*dG*dG*dA*dA*dG*eG*eA) [compound 435837] | 37
46 | 435838 (antisense eT*e[5mC]*d[5mC]*dA*dT*dG*dG*dA*d[5mC]*dA*d[5mC]*dT*eA*eA) [compound 435838] | 29
47 | 435839 (antisense eG*eG*dT*d[5mC]*dA*dG*d[5mC]*dT*dG*dG*dT*d[5mC]*eT*eG) [compound 435839] | 14
48 | 435840 (antisense eG*eG*dG*d[5mC]*d[5mC]*d[5mC]*dG*d[5mC]*d[5mC]*dA*d[5mC]*dT*eG*eG) [compound 435840] | 0
49 | 435841 (antisense e[5mC]*eT*d[5mC]*dG*dG*dA*d[5mC]*dA*dA*dA*dA*dG*eA*eG) [compound 435841] | 1
50 | 435842 (antisense eA*eT*dT*dT*d[5mC]*d[5mC]*d[5mC]*dA*dT*dT*dG*dG*e[5mC]*eA) [compound 435842] | 0
51 | 435843 (antisense eG*e[5mC]*dT*dG*dG*dA*dG*d[5mC]*dT*dG*dA*dG*e[5mC]*e[5mC]) [compound 435843] | 0
52 | 435844 (antisense eT*eG*dG*d[5mC]*d[5mC]*dA*dG*dT*dG*dG*d[5mC]*d[5mC]*eT*e[5mC]) [compound 435844] | 30
53 | 435845 (antisense eG*e[5mC]*dT*d[5mC]*dA*dT*dG*dG*d[5mC]*dA*dG*dA*e[5mC]*eA) [compound 435845] | 21
54 | 435846 (antisense eT*eG*dG*dA*dG*dA*dG*dA*d[5mC]*d[5mC]*dA*dA*eT*eG) [compound 435846] | 7
55 | 435847 (antisense eT*eG*dG*dT*dG*dT*dG*d[5mC]*dA*d[5mC]*dA*d[5mC]*eA*eT) [compound 435847] | 36
56 | 435848 (antisense eT*eG*dG*d[5mC]*d[5mC]*dA*d[5mC]*dT*dG*d[5mC]*d[5mC]*dT*e[5mC]*eA) [compound 435848] | 32
